From patent publication US20120053053A1, “PYRIMIDINE DERIVATIVES AND THEIR USE AS HERBICIDES” (SYNGENTA CROP PROTECTION, LLC, priority 2009, published 2012)

Columns and labels:
Assay type in all cases: in vivo
[1] = tested on: Ipomea hederaceae (IPOHE); assay: Post-emergence biological efficacy (percentage damage); settings: Ipomoea hederacea, 312 h, evaluated after 13 days, 100=total damage, 0=no damage; for pest or weed control at 1000 g/ha: dose 1,000 g/ha
Procedure: (§1) Seeds of Alopecurus myosuroides (ALOMY), Setaria faberi (SETFA), Echinochloa crus-galli (ECHCG), Solanum nigrum (SOLNI), Amaranthus retoflexus (AMARE) and Ipomea hederaceae (IPOHE) were sown in standard soil in pots. After cultivation for 8 days under controlled conditions in a glasshouse (at 24/16° C., day/night; 14 hours light; 65% humidity), the plants were sprayed with an aqueous spray solution derived from the formulation of the technical active ingredient in acetone/water (50:50) solution containing 0.5% Tween 20 (polyoxyethylene sorbitan monolaurate, CAS RN 9005-64-5) to give a final dose of 250 or 1000 g/ha of test compound. The test plants were then grown on under controlled conditions in a glasshouse (at 24/16° C., day/night; 14 hours light; 65% humidity) and watered twice daily. After 13 days the test was evaluated (100=total damage to plant; 0=no damage to plant).

Solanum nigrum (SOLNI) [2] = assay: as above; settings: Solanum nigrum, 312 h, evaluated after 13 days, 100=total damage, 0=no damage; for pest or weed control at 1000 g/ha: dose 1,000 g/ha
Procedure: as §1

[3] = tested on: Amaranthus retoflexus (AMARE); assay: as above; settings: Amaranthus retroflexus, 312 h, evaluated after 13 days, 100=total damage, 0=no damage; for pest or weed control at 1000 g/ha: dose 1,000 g/ha
Procedure: as §1

[4] = tested on: Echinochloa crus-galli (ECHCG); assay: as above; settings: Echinochloa crus-galli, 312 h, evaluated after 13 days, 100=total damage, 0=no damage; for pest or weed control at 1000 g/ha: dose 1,000 g/ha
Procedure: as §1

[5] = tested on: Alopecurus myosuroides (ALOMY); assay: as above; settings: Alopecurus myosuroides, 312 h, evaluated after 13 days, 100=total damage, 0=no damage; for pest or weed control at 1000 g/ha: dose 1,000 g/ha
Procedure: as §1

Setaria faberi (SETFA) [6] = assay: as above; settings: Setaria faberi, 312 h, evaluated after 13 days, 100=total damage, 0=no damage; for pest or weed control at 1000 g/ha: dose 1,000 g/ha
Procedure: as §1

[7] = tested on: Ipomea hederaceae (IPOHE); assay: Pre-emergence biological efficacy (percentage damage); settings: evaluated after 13 days, 100=total damage, 0=no damage
Procedure: (§2) Seeds of Alopecurus myosuroides (ALOMY), Setaria faberi (SETFA), Echinochloa crus-galli (ECHCG), Solanum nigrum (SOLNI), Amaranthus retoflexus (AMARE) and Ipomea hederaceae (IPOHE) were sown in standard soil in pots. After cultivation for one day under controlled conditions in a glasshouse (at 24/16° C., day/night; 14 hours light; 65% humidity), the plants were sprayed with an aqueous spray solution derived from the formulation of the technical active ingredient in acetone/water (50:50) solution containing 0.5% Tween 20 (polyoxyethylene sorbitan monolaurate, CAS RN 9005-64-5) to give a final dose of 250 or 1000 g/ha of test compound. The test plants were then grown under controlled conditions in the glasshouse (at 24/16° C., day/night; 14 hours light; 65% humidity) and watered twice daily. After 13 days the test was evaluated (100=total damage to plant; 0=no damage to plant).

Solanum nigrum (SOLNI) [8] = assay: as above; settings: evaluated after 13 days, 100=total damage, 0=no damage
Procedure: as §2

[9] = tested on: Amaranthus retoflexus (AMARE); assay: as above; settings: evaluated after 13 days, 100=total damage, 0=no damage
Procedure: as §2

[10] = tested on: Echinochloa crus-galli (ECHCG); assay: as above; settings: evaluated after 13 days, 100=total damage, 0=no damage
Procedure: as §2

[11] = tested on: Alopecurus myosuroides (ALOMY); assay: as above; settings: evaluated after 13 days, 100=total damage, 0=no damage
Procedure: as §2

Setaria faberi (SETFA) [12] = assay: as above; settings: evaluated after 13 days, 100=total damage, 0=no damage
Procedure: as §2

[13] = Ipomoea hederacea, 312 h, dose 1,000 g/ha
[14] = Solanum nigrum, 312 h, dose 1,000 g/ha
[15] = Amaranthus retroflexus, 312 h, dose 1,000 g/ha
[16] = Echinochloa crus-galli, 312 h, dose 1,000 g/ha
[17] = Alopecurus myosuroides, 312 h, dose 1,000 g/ha
[18] = Setaria faberi, 312 h, dose 1,000 g/ha

Compound | pest or weed control at 1000 g/ha [1] | pest or weed control at 1000 g/ha (Solanum nigrum (SOLNI) [2]) | pest or weed control at 1000 g/ha [3] | pest or weed control at 1000 g/ha [4] | pest or weed control at 1000 g/ha [5] | pest or weed control at 1000 g/ha (Setaria faberi (SETFA) [6]) | pest or weed control at 1000 g/ha [7, 13] | pest or weed control at 1000 g/ha (Solanum nigrum (SOLNI) [8]; [14]) | pest or weed control at 1000 g/ha [9, 15] | pest or weed control at 1000 g/ha [10, 16] | pest or weed control at 1000 g/ha [11, 17] | pest or weed control at 1000 g/ha (Setaria faberi (SETFA) [12]; [18]) | further results
C=Cc1c(N)nc(-c2ccc(F)c(C(F)(F)F)c2)nc1C(=O)OC [Compound 43-61, 4-Amino-5-ethenyl-2-(4-fluoro-3-trifluoromethyl-phenyl)-6-methoxycarbonyl-pyrimidine] | 10% | 70% | 20% | 30% | 30% | 20% | 10% | 70% | 60% | 70% | 30% | 50% | –
COC(=O)c1nc(-c2ccc(Cl)c(OC)c2F)nc(N)c1C=C(C)C [Compound 27-69, 4-Amino-2-(4-chloro-2-fluoro-3-methoxyphenyl)-6-methoxycarbonyl-5-(2-methylprop-1-enyl)-pyrimidine] | 40% | 80% | 90% | 10% | 40% | 40% | 30% | 100% | 100% | 30% | 40% | 60% | –
C=Cc1c(N)nc(-c2ccc(OC(F)(F)F)cc2)nc1C(=O)OC [Compound 47-61, 4-Amino-5-ethenyl-6-methoxycarbonyl-2-(4-trifluoromethoxy-phenyl)-pyrimidine] | 10% | 70% | 100% | 10% | 10% | 10% | 0% | 0% | 0% | 0% | 0% | 0% | –
C=Cc1c(N)nc(-c2ccc(Cl)c(C(F)(F)F)c2)nc1C(=O)OC [Compound 14-61, 4-Amino-2-(4-chloro-3-trifluoromethyl-phenyl)-5-ethenyl-6-methoxycarbonyl-pyrimidine] | 40% | 80% | 10% | 0% | 0% | 0% | 10% | 40% | 60% | 20% | 10% | 10% | –
C=Cc1c(N)nc(-c2ccc(C#N)cc2)nc1C(=O)OC [Compound 68-61, 4-Amino-2-(4-cyanophenyl)-5-ethenyl-6-methoxycarbonyl-pyrimidine] | – | – | – | – | – | – | – | – | – | – | – | – | pest or weed control at 250 g/ha ([1]; dose 250 g/ha): 40%; pest or weed control at 250 g/ha (Solanum nigrum (SOLNI) [2]; dose 250 g/ha): 80%; pest or weed control at 250 g/ha ([3]; dose 250 g/ha): 30%; pest or weed control at 250 g/ha ([4]; dose 250 g/ha): 0%; pest or weed control at 250 g/ha ([5]; dose 250 g/ha): 0%; pest or weed control at 250 g/ha (Setaria faberi (SETFA) [6]; dose 250 g/ha): 0%; pest or weed control at 250 g/ha ([7]; Ipomoea hederacea, 312 h, dose 250 g/ha): 0%; pest or weed control at 250 g/ha (Solanum nigrum (SOLNI) [8]; Solanum nigrum, 312 h, dose 250 g/ha): 30%; pest or weed control at 250 g/ha ([9]; Amaranthus retroflexus, 312 h, dose 250 g/ha): 10%; pest or weed control at 250 g/ha ([10]; Echinochloa crus-galli, 312 h, dose 250 g/ha): 0%; pest or weed control at 250 g/ha ([11]; Alopecurus myosuroides, 312 h, dose 250 g/ha): 0%; pest or weed control at 250 g/ha (Setaria faberi (SETFA) [12]; Setaria faberi, 312 h, dose 250 g/ha): 0%
C/C=C/c1c(N)nc(-c2ccc(C(F)(F)F)cc2)nc1C(=O)OC [Compound 31-62, 4-amino-6-methoxycarbonyl-5-prop-1-enyl-2-(4-tri-fluoromethylphenyl)-pyrimidine] | 50% | 50% | 30% | 0% | 0% | 10% | 0% | 0% | 20% | 0% | 0% | 0% | –
C=Cc1c(N)nc(-c2ccc(Cl)c(N(C)C)c2F)nc1C(=O)OCCOCCCC [Compound 33-397] | 80% | 90% | 100% | 90% | 80% | 90% | 50% | 100% | 100% | 100% | 80% | 90% | –
C=Cc1c(SC)nc(C2CC2)nc1C(=O)OC [Compound 2-400, 2-cyclopropyl-5-ethenyl-6-methoxycarbonyl-4-methylthio-pyrimidine] | 60% | 100% | 80% | 0% | 0% | 0% | 60% | 100% | 90% | 0% | 0% | 0% | –
COC(=O)c1nc(-c2ccc(C)c(OC)c2F)nc(N)c1C [Compound 60-41] | 40% | 100% | 100% | 30% | 40% | 10% | 10% | 40% | 0% | 10% | 20% | 10% | –
COC(=O)c1nc(C2CC2)nc(N)c1/C=C/C1CC1 [Compound 2-66, 4-Amino-2-cyclopropyl-5-(2-cyclopropyl-ethenyl)-6-methoxycarbonyl-pyrimidine] | 40% | 60% | 50% | 0% | 0% | 10% | 0% | 0% | – | 0% | 0% | 0% | –
C/C=C/c1c(N)nc(-c2ccc(Cl)c(N(C)C)c2F)nc1C(=O)OC [33-62 (E)] | – | – | – | – | – | – | – | – | – | – | – | – | Percentage damage IPOHE, pre-emergence ([7]; dose 1,000 g/ha): 0%; Percentage damage SOLNI, pre-emergence (Solanum nigrum (SOLNI) [8]; dose 1,000 g/ha): 80%; Percentage damage AMARE, pre-emergence ([9]; dose 1,000 g/ha): 100%; Percentage damage ECHCG, pre-emergence ([10]; dose 1,000 g/ha): 90%; Percentage damage ALOMY, pre-emergence ([11]; dose 1,000 g/ha): 70%; Percentage damage SETFA, pre-emergence (Setaria faberi (SETFA) [12]; dose 1,000 g/ha): 80%
COC(=O)c1nc(-c2ccc(Cl)c(OC)c2F)nc(N)c1C1CC1 [Compound 27-58, 4-Amino-2-(4-chloro-2-fluoro-3-methoxyphenyl)-5-cyclopropyl-6-methoxycarbonyl-pyrimidine] | 60% | 80% | 90% | 20% | 10% | 40% | 10% | 0% | – | 0% | 0% | 0% | –
